# Data taken from article PMC8963105, “A Novel Modulator of the Renin–Angiotensin System, Benzoylaconitine, Attenuates Hypertension by Targeting ACE/ACE2 in Enhancing Vasodilation and Alleviating Vascular Inflammation” (Frontiers in Pharmacology, 2022).
# Tested on: thoracic aorta
# Experiment: vascular function: Ang I pre-constricted isolated thoracic aorta
# Details: isolated aorta of SD rat, Ang I 10^–2 μM
# Procedure: Endothelium-dependent vasorelaxation using aorta was evaluated as previously described ([Liao et al., 2019]). Briefly, after euthanizing the SD rat with sodium pentobarbital (100 mg kg^−1, i.p.) administration in combination with isoflurane inhalation, thoracic aorta (diameter: 150–250 μm, length: 2 mm) was mounted on two tungsten wires and attached to a tension sensor system (ADInstruments). After balancing for 2 h in Krebs’ solution at 37°C, arteries were exposed to 10 µM of phenylephrine (PE, Sigma-Aldrich, St. Louis, MO, United States) twice, followed by a single dose of acetylcholine (Ach, 3 μm, Sigma-Aldrich, St. Louis, MO, United States) to evaluate the integrity of the vessel. Afterward, the vessel was pre-constricted to maximum using AngI (Sigma-Aldrich) at 10^–2 μM and then treated with a series concentration of BAC or A779 (Sigma-Aldrich) or captopril at 10^–6 to 10^–1 μM. Lastly, a cumulative concentration response curve to BAC with A779 (at 10^–2 μM) was performed to assess the endothelium-dependent vasorelaxation.
compound,measurement,setting,value
"CCN1CC2(COC)C(O)CC(OC)C34C5CC6(O)C(OC)C(O)C(O)(C5C6OC(=O)c5ccccc5)C(C(OC)C23)C14 (centres unmarked) [BAC, Benzoylaconitine]",Ang I-induced vascular constriction,10^–6 to 10^–1 μM,attenuate
same,attenuation of Ang I-induced vascular constriction in presence of Mas inhibitor A779,with A779,abolished
